In US20150025131A1 (priority 2013, published 2015):
In brackets after ≈: the same amount, converted by molar mass. Entries after “also recorded” stand apart in the source; their conditions may differ. Where two headings read alike, the source gives them in different places.

Key:
TNF-α production = TNF-α production from PMA differentiated, LPS activated THP-1 cells (ELISA); assay type: cell-based, human; settings: Homo sapiens, 4 h, read-out: inhibition of TNF-α production (IC50)
Experimental: The symbol * and δ represents the P≦0.03 and P≦0.006, respectively.
FIG. 2 depicts the effect of pentoxyfillin (PTX) on TNF-α production (pg/mL) Human monocytic leukemia THP-1 cells were differentiated and activated with 20 ng/mL of PMA and 50 ng/mL of LPS, respectively and incubated with different concentrations of PTX for 4h, the supernatant was analyzed for the level of TNF-α by ELISA. The symbol * represents P≦of 0.03.
(§1) THP-1 (human monocytic leukemia) cells were maintained in RPMI-1640 supplemented with 10% FBS, 2 mmol/L glutamine, 5.5 mmol/L glucose, 50 μmol/L mercaptoethanol, 1 mmol/L sodium pyruvate, and 10 mmol/L HEPES and incubated at 37° C. in 5% CO2. Cells were grown in […] culture flask until they attained 70% confluency. Cells were then plated in 24-well tissue culture plates at a concentration of 2.5×10^5 cells/mL. Cells were differentiated into macrophages using PMA at a final concentration of 20 ng/mL and further incubated at 37° C. in 5% CO2 environment for 24 h. […] After addition of the compound cells were then incubated for 4 h for TNF-α production and 18 h for IL-1β production at 37° C. in 5% CO2. The supernatants were harvested and analyzed for the level of TNF-α and IL-1β, by human TNF-α and IL-1β Duo set ELISA kits, and according to the manufacturer's instructions.

IL-1β production = IL-1β production from PMA differentiated, LPS activated THP-1 cells (ELISA); assay type: cell-based; settings: Homo sapiens, 18 h, read-out: inhibition of IL-1β production (IC50)
Experimental: as §1

[1] = test system: ROS production from human neutrophils; assay: Luminol enhanced chemiluminescence oxidative burst, isolated neutrophils; assay type: cell-based; settings: Neutrophil, serum opsonized zymosan, read-out: Myeloperoxidase dependent Oxidative Burst (IC50 μg/mL) Neutrophils
Experimental: (§2) Intracellular effect was determined using human peripheral whole blood phagocytes and isolated neutrophils and from mice peritoneum macrophages, where luminol-enhanced chemillumenescence assay was applied. The effect on myeloperoxidase independent ROS production was determined using lucigenin on murine macrophages RAW.267 cells.
Table 2. […] 267 cells (murine macrophages). DPI is used as standard drug. Reading presents mean±SD of three determinations.
Heparinized blood was obtained by vein puncture aseptically, from healthy volunteers (25-38 years age). The buffy coat containing polymorhonuclear neutrophils (PMNs) was collected by dextran sedimentation, and cells were isolated after the LSM density gradient centrifugation. […]
Luminol enhanced chemiluminescence technique was applied to study the effect of compound on ROS from phagocytes, Using whole blood, neutrophil and macrophages Briefly, 25 μL diluted whole blood (1:50 dilution in sterile HBSS^++) or 25 μL of PMNs (1×10^6), or 25 μL of isolated macrophages (1×10^6) were incubated with 25 μL of compound in triplicates and using three different concentrations (1, 10 and 100 μg/mL) using white 96 wells plates. […] Results were monitored as relative light unit (RLU) reading, with peak and total integral values set with repeated scans at 60 seconds intervals, and 1 second points measuring time.

[2] = test system: ROS production from PMA activated RAW. 267 cells (murine macrophages); assay: Lucigenin enhanced (myeloperoxidase independent) oxidative burst; assay type: cell-based; settings: Mus musculus, Macrophage
Experimental: as §2, with “cells. […] Table 2. […] 267 cells (murine macrophages). DPI is used as standard drug. Reading presents mean±SD of three determinations.” for “cells.”

serum TNF-α = assay: Adjuvant induced arthritis model, serum TNF-α; assay type: in vivo, Sprague Dawley rats; settings: AIA rats, daily intraperitoneal; Patuletin 25 mg/kg, indomethacin 5 mg/kg
Experimental: (§3) All studies were carried out using Female Sprague Dawley (SD) rats weighing 150-250 gms. Animals were kept at 21±2° C. and on a 12-h light/dark cycle, received standardized pelleted diet and tap water. Experiments were performed under the ethical guidelines of the International Association for the study of pain in conscious animals. Each group contains 12 animals with randomly distributed weights into each treatment group.
Arthritis was induced by injecting freshly prepared 100 μL of 1 mg suspension of lyophilized Mycobacterium tuberculosis H37Ra (MT H37Ra; DIFCO Laboratories, Detroit, Mich., USA), subcutaneously at the rat tail base using sterile hypodermic needle. Inoculation was carried out under anesthesia with a combination of 20 mg/kg ketamine and 5 mg/kg xylazine, injected intraperitoneally. Compound and the reference drug were administered daily, intraperitoneally using sterile syringes. The positive control received vehicle (5% DMSO+PBS) or saline only; treatment groups received test compounds (25 mg/kg), whereas reference group received indomethacin (5 mg/kg). The doses of the test compounds were selected after preliminary dose finding studies. […]
The quantitative measurement of TNF-α and IL-1β was done in serum of all groups of animals including arthritic and non-arthritic using commercial ELISA assay kits (Abcam, USA) according to the manufacturer's instructions. […]

serum nitric oxide = assay: Adjuvant induced arthritis model, serum nitric oxide; assay type: in vivo, Sprague Dawley rats; settings: AIA rats, daily intraperitoneal; Patuletin 25 mg/kg, indomethacin 5 mg/kg
Experimental: as §3
Arthritis was induced by injecting freshly prepared 100 μL of 1 mg suspension of lyophilized Mycobacterium tuberculosis H37Ra (MT H37Ra; DIFCO Laboratories, Detroit, Mich., USA), subcutaneously at the rat tail base using sterile hypodermic needle. […]
Peroxide (PO) and nitric oxide (NO), in serum were determined in the serum samples of both the normal and arthritic groups, using quantitative colorimetric assay kits, i.e., the Quantichrom ™ Nitric Oxide Assay Kit, and the Quantichrome™ Peroxide assay kit Diox-250 (BioAssay Systems, Hayward, Calif., USA). […] The samples were analyzed in duplicates using 96-well plate and the plate was read at 540 nm. The Quantichrome™ Peroxide assay kit Diox −250 system is an improved method which utilizes the oxidation of Fe^++ by peroxide present in the analyzed sample resulting in formation of purple complex that gives the accurate measure of peroxide level in the sample when read at 540-610 nm.

Work on `COc1c(O)cc2oc(-c3ccc(O)c(O)c3)c(O)c(=O)c2c1O` [Patuletin, 3,5,7,3′,4′-pentahydroxy-6-methoxy flavones] yielded an IC50 (TNF-α production) of 2.5 µg/mL (≈ 7.52 µM), an IC50 (IL-1β production) of over 50 µg/mL and an IC50 [1] of 1.2 µg/mL. For the same compound, the IC50 ([2]; compared to DPI as standard drug, read-out: inhibition of extracellular ROS species (IC50), unit inferred) was 0.3 µg/mL, the IC50 ([2]; lucigenin enhanced, PMA activated RAW. 267 cells, read-out: Myeloperoxidase independent Oxidative Burst (IC50 μg/mL) on macrophages) was 0.3 ± 0.03 µg/mL and the “level of TNF-α in serum versus arthritic control group” value (serum TNF-α) was “marked decrease”. The “level of nitric oxide in serum versus arthritic control group” value (serum nitric oxide) was “marked reduction; also recorded: significant decrease”.
